This note sets out measurements from PMC9786103, “Potent and Selective Inhibition of CYP1A2 Enzyme by Obtusifolin and Its Chemopreventive Effects” (Pharmaceutics, 2022).

In one data set the target is T1, CYP1A2 (Homo sapiens, UniProt P05177).
T1 sequence (P05177 1-516): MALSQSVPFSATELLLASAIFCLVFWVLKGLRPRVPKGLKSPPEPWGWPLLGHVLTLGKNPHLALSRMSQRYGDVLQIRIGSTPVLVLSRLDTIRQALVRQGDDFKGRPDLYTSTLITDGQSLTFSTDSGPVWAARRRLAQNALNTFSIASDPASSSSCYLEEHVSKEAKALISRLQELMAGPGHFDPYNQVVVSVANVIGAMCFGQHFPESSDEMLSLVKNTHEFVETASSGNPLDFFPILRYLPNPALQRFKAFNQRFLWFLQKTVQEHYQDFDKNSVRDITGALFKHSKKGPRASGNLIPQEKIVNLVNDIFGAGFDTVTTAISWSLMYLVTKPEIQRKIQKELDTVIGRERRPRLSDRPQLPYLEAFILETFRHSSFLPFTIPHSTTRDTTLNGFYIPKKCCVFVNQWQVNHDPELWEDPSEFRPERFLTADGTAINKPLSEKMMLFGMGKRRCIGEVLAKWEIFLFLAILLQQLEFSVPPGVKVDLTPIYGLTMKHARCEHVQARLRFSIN
As to the kind of experiment: CYP1A2-mediated phenacetin O-deethylase (POD) activity in pooled human liver microsomes. The procedure:
(§1) The inhibitory potential of five major bioactive compounds from Cassiae semen against CYP1A2-mediated phenacetin O-deethylase (POD) activity was evaluated using previously developed methods with minor modifications. Briefly, the compounds were dissolved in methanol. The incubation mixtures containing pHLMs (0.25 mg/mL), phenacetin (100 µM), and inhibitor (0, 0.5, 2, 5, 20, or 50 µM) were pre-incubated at 37 °C for 5 min. An NADPH-generating system (NGS, 1.3 mM β-NADP^+, 3.3 mM G6P, 1.0 U/mL G6PDH, and 3.3 mM magnesium chloride) was introduced after pre-incubation to initiate the reaction, and further incubated for 15 min. The reaction was quenched by the addition of 50 µL ice-cold acetonitrile containing internal standard (IS; 7nM trimipramine). Aliquots of supernatants were analyzed by liquid chromatography–tandem mass spectrometry (LC-MS/MS, LCMS 8060 system, Shimadzu, Kyoto, Japan). All microsomal incubations were repeated three times.
(§2) The inhibitory potential of obtusifolin against the biotransformation of eight P450 probe substrates was examined using previously reported methods with slight changes. The following P450 isoform-specific substrates were used: coumarin (CYP2A6); bupropion (CYP2B6); amodiaquine (CYP2C8); tolbutamide (CYP2C9); omeprazole (CYP2C19); dextromethorphan (CYP2D6); chlorzoxazone (CYP2E1); and midazolam (CYP3A). Mixtures of pooled HLM, P450 substrates, and obtusifolin (0, 0.05, 0.2, 0.5, 2, 5, or 10 µM for CYP1A2; and 0, 0.5, 2, 5, 20, or 50 µM for the other P450 isoforms) were pre-incubated (5 min, 37 °C). NGS was introduced to start the reaction, which was followed by an additional incubation (15 min). Following reaction termination, aliquots of the supernatants were analyzed with LC-MS/MS.
(§3) Reverse phase column (Kinetex XB-C18, 100 × 2.10 mm; Phenomenex, Torrance, CA, USA) and triple-quadrupole mass spectrometer (LCMS 8060, Shimadzu, Kyoto, Japan) with an ultra high-performance LC system (Nexera X2, Shimadzu) analyze all the metabolites. Mobile phases were 0.1% formic acid in water (A) and 0.1% formic acid in acetonitrile (B). The elution condition was as follows: 0–0.5 min (B: 8%), 0.5–5 min (B: 8%→60%), 5–6 min (B: 60%), 6–6.1 min (B: 60%→8%), and 6.1–10 min (B: 8%) for the analysis of metabolites of the nine P450 substrates; and 0–1 min (B: 5%), 1–5 min (B: 5%→90%), and 5.1–7 min (B: 90%→5%) for the analysis of resorufin. Electrospray ionization was performed in the positive- and negative-ion modes at 4.0 and −3.5 kV, respectively. For each metabolite, quantitation was carried out in selected reaction monitoring (SRM) mode using the following precursor-to-product ion transition: m/z 152 > 110 for acetaminophen (CYP1A2), m/z 214 > 186 for resorufin (CYP1A1 and CYP1A2), m/z 163 > 107 for 7-hydroxycoumarin (CYP2A6), m/z 256 > 238 for 6-hydroxybupropion (CYP2B6), m/z 328 > 283 for N-desethylamodiaquine (CYP2C8), m/z 287 > 89 for 5-hydroxytolbutamide (CYP2C9), m/z 362 > 214 for 4-hydroxyomeprazole ([…]), m/z 258 > 157 for dextrorphan (CYP2D6), m/z 184 > 120 for 6-hydroxychlorzoxazone (CYP2E1), m/z 342 > 203 for 1′-hydroxymidazolam (CYP3A), and m/z 295 > 100 for trimipramine (IS).
(§4) WinNonlin software (Pharsight, Mountain View, CA, USA) was used to calculate IC50 values. Based on Lineweaver–Burk double reciprocal plots, secondary plots of Lineweaver–Burk plots versus obtusifolin concentrations, and visual inspection of Dixon plots, the type of inhibition and apparent kinetic parameters for inhibitory activity (Ki) were estimated.
On the technique in general: Liver microsomes are a subcellular fraction often used to study metabolism.

Data set [1] deals with T2, CYP1A2 versus CYP2A6, CYP2B6, CYP2C8, CYP2C9, CYP2C19, CYP2D6, CYP2E1, CYP3A (Homo sapiens, UniProt P05177).
T2 sequence (P05177 1-516): T1 sequence (P05177 1-516)
The description is as above. The note with it: human, pooled human liver microsomes. The protocol: as §1, §2, §3, §4

The target of another data set is T3, rCYP1A1 (Homo sapiens, UniProt P04798).
T3 construct: purchased SPMED (Busan, Republic of Korea)
T3 sequence (P04798 1-512): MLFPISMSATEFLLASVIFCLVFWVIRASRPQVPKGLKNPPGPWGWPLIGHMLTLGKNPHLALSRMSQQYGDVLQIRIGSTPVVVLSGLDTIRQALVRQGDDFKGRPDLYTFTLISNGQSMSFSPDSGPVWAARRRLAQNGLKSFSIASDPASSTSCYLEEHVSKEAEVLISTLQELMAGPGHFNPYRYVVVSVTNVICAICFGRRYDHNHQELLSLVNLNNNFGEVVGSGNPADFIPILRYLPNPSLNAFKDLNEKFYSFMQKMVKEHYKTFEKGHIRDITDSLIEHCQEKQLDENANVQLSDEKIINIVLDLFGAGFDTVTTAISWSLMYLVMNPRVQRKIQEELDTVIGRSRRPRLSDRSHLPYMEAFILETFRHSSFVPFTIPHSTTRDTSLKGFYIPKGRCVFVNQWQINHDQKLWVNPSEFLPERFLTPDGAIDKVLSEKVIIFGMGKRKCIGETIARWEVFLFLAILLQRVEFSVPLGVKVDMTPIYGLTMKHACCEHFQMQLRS
As to the kind of experiment: Ethoxyresorufin O-deethylation (EROD) in recombinant CYP1A1. The class given is biochemical. The note with it: rCYP1A1 10 pmol/mL, 7-ethoxyresorufin 2 µM, 20 min; read-out: IC50, CYP1A1-mediated EROD. The protocol:
The inhibitory effects of obtusifolin on the CYP1A-mediated ethoxyresorufin O-deethylation (EROD) activity of rCYP1A1 and rCYP1A2 enzymes (10 pmol/mL) were investigated. […] The other conditions, except for the incubation time (20 min), were similar to those used in the P450 inhibition study, as described earlier.

In general, IC50 refers to the concentration at which inhibition is half-maximal. The inhibition is the share of the control response that was lost under treatment. A high value points to a response far below the control. Regarding `COc1c(O)c(C)cc2c1C(=O)c1c(O)cccc1C2=O` [Obtusifolin, obtusifolin], the half-inhibitory concentration (IC50) came to 190 ± 10 nM on CYP1A2 and 390 ± 60 nM on rCYP1A1. The compound further displayed an inhibition at 15 min, 0.5 µM on CYP1A2 (human, pooled human liver microsomes, probe phenacetin (100 µM)) of 73.3%. Also, the selectivity ratio at 15 min in data set [1] was greater than 150.
